The values that follow come from patent publication US8278032B2, “Transporter protein in mammal and utilization of the same” (priority 2005, dated 2012).

For assay [1], the target named is T1, hMATE1 (Homo sapiens, UniProt Q96FL8).
T1 sequence (Q96FL8 1-570): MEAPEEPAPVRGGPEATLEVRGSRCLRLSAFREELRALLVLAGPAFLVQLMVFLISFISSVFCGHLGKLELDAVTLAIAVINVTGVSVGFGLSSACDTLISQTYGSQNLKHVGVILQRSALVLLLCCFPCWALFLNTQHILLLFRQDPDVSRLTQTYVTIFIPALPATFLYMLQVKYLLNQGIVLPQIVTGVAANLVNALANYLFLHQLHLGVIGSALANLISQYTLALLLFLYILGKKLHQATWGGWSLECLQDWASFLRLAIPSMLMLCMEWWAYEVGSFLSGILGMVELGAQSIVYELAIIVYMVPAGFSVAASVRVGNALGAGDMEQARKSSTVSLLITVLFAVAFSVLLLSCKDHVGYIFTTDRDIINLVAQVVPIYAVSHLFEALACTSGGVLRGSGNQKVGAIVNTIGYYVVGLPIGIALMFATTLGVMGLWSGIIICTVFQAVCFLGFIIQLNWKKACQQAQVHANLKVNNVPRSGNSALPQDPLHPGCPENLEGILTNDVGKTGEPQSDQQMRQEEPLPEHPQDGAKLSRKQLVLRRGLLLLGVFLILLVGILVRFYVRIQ
Nature of the assay: Inhibition of RI-labeled TEA uptake in HEK293 cells expressing hMATE1. The note with it: for TEA uptake activity percent taking the level with addition of no compound as 100% (% ± S.D.): 50 μM RI-labeled TEA, pH 8.0, HEK293 cells expressing hMATE1; for Effect on TEA uptake activity (in words): valinomycin 5 μM with 65 mM potassium chloride, nigericin 5 μM with potassium chloride, SF6847 10 μM; for Inhibition of TEA uptake activity (in words, summary of Table 1): MATE1 expressing HEK293 cells, 50 μM TEA, pH 8.0.

In assay [2] the target is T2, mMATE1 (Mus musculus, UniProt Q8K0H1).
T2 construct: expressed in transfected cells; host or cells: HEK293
T2 sequence (Q8K0H1 with tags, fused parts or gaps): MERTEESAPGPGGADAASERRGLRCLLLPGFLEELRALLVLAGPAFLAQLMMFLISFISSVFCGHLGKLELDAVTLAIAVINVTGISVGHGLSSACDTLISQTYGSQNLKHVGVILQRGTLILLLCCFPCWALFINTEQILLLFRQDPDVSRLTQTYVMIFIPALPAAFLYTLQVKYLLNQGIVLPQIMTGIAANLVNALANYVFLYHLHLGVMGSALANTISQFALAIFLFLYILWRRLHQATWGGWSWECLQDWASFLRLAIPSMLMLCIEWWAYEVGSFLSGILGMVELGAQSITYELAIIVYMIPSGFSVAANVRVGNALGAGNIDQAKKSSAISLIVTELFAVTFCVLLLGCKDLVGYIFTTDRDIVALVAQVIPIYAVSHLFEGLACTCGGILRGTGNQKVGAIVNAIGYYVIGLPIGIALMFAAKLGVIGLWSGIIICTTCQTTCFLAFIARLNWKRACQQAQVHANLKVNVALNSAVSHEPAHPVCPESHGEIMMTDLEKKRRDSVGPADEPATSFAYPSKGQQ
Nature of the assay: Inhibition of RI-labeled TEA uptake in HEK293 cells expressing mMATE1.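 On all read-outs here: transfected HEK293 cells held 5 min at 37 °C before tracer addition, uptake read as radioactivity retained on a 0.45-µm membrane filter, mean ± SD of three to nine experiments.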 The class given is cell-based. The note with it: for remaining activity at 5000 µM: compound 5 mM, 50 μM RI-labeled TEA, pH 8.0, HEK293 cells expressing mMATE1, read-out: TEA uptake activity percent taking the level with addition of no compound as 100% (% ± S.D.).

Setting [3] is: HEK293 cells expressing human MATE1, FIG. 9(e).

Take `NC12CC3CC(CC(C3)C1)C2` [Amantadine]: the “TEA uptake activity percent taking the level with addition of no compound as 100% (% ± S.D.)” value in assay [1] (compound 0.1 mM) worked out at 75.5 ± 9.8%.
With `C[C@]12CCC(=O)C=C1CC[C@@H]1[C@@H]2CC[C@]2(C)C(=O)CC[C@@H]12` [Androstenedione], the “TEA uptake activity percent taking the level with addition of no compound as 100% (% ± S.D.)” value in assay [1] (compound 0.1 mM) turned out to be 36.6 ± 0.9%. Further, in assay [2] (HEK293, pH 8, read-out: TEA uptake activity percent taking the level with addition of no compound as 100% (% ± S.D.)), the remaining activity at 100 µM turned out to be 8.6 ± 1.7%.
For `CN1[C@@H]2CC[C@H]1C[C@@H](OC(=O)C(CO)c1ccccc1)C2` (stereo partly shown) [Atropine], the “TEA uptake activity percent taking the level with addition of no compound as 100% (% ± S.D.)” value in assay [1] (compound 0.1 mM) is listed as 74.6 ± 5.5%.
Turning to `COc1ccc2cc3[n+](cc2c1OC)CCc1cc2c(cc1-3)OCO2` [Berberin], the “TEA uptake activity percent taking the level with addition of no compound as 100% (% ± S.D.)” value in assay [1] (compound 0.001 mM) was determined as 69.2 ± 2.1%; in assay [1] (compound 0.01 mM), 20.4 ± 2.4%; in assay [1] (compound 0.1 mM), 4.2 ± 0.9%.
Consider `CC(C)(c1ccc(O)cc1)c1ccc(O)cc1` [Bisphenol A], for which the “TEA uptake activity percent taking the level with addition of no compound as 100% (% ± S.D.)” value in assay [1] (compound 0.01 mM) was determined as 113.9 ± 2.1%.
For the molecule `C[N+](C)(C)CC(O)CC(=O)[O-]` (stereo not shown) [Carnitine], the “TEA uptake activity percent taking the level with addition of no compound as 100% (% ± S.D.)” value in assay [1] (compound 5 mM) came to 104.2 ± 6.4%. Also, the remaining activity at 5000 µM in assay [2] turned out to be 71.2 ± 6.1%.
In the case of `CN(C)CCCN1c2ccccc2Sc2ccc(Cl)cc21` [Chlorpromazine], the “TEA uptake activity percent taking the level with addition of no compound as 100% (% ± S.D.)” value in assay [1] (compound 0.1 mM) is 12.2 ± 3.6%.
As for `C[N+](C)(C)CCO` [Choline], the “TEA uptake activity percent taking the level with addition of no compound as 100% (% ± S.D.)” value in assay [1] (compound 5 mM) is 62.7 ± 4.1%. Besides, the remaining activity at 5000 µM in assay [2] turned out to be 62 ± 8.8%.
As to `N.N.[Cl][Pt][Cl]` [Cisplatin], in assay [1] (compound 1 mM), the “TEA uptake activity percent taking the level with addition of no compound as 100% (% ± S.D.)” value was 35.6 ± 6.0%.
For `CC/C(=C(/CC)c1ccc(O)cc1)c1ccc(O)cc1` [Diethylstilbestrol], the “TEA uptake activity percent taking the level with addition of no compound as 100% (% ± S.D.)” value in assay [1] (compound 0.1 mM) stood at 94.9 ± 7.8%.
As for `C[C@H]1O[C@@H](O[C@H]2[C@@H](O)C[C@H](O[C@H]3[C@@H](O)C[C@H](O[C@H]4CC[C@@]5(C)[C@H](CC[C@@H]6[C@@H]5C[C@@H](O)[C@]5(C)[C@@H](C7=CC(=O)OC7)CC[C@]65O)C4)O[C@@H]3C)O[C@@H]2C)C[C@H](O)[C@@H]1O` [Digoxin], the “TEA uptake activity percent taking the level with addition of no compound as 100% (% ± S.D.)” value in assay [1] (compound 0.001 mM) was 102.5 ± 7.3%.
The same measure, in the same setting: then `O=C(CCCN1CC=C(n2c(=O)[nH]c3ccccc32)CC1)c1ccc(F)cc1` [Droperidol], with 74.1 ± 14.7%.
Turning to `CN(C)C(=N)N=C(N)N` [Metformin], the “TEA uptake activity percent taking the level with addition of no compound as 100% (% ± S.D.)” value in assay [1] (compound 0.1 mM) amounted to 120.5 ± 9.4%.
Turning to `C[C@@H]1O[C@@H](O[C@H]2C[C@@H](O)[C@]3(CO)[C@H]4[C@H](O)C[C@]5(C)[C@@H](C6=CC(=O)OC6)CC[C@]5(O)[C@@H]4CC[C@]3(O)C2)[C@H](O)[C@H](O)[C@H]1O` [Ouabain], the “TEA uptake activity percent taking the level with addition of no compound as 100% (% ± S.D.)” value in assay [1] (compound 0.01 mM) is reported as 115.9 ± 6.6%.
Still for that read-out and setting: next, `COc1ccc(Cc2nccc3cc(OC)c(OC)cc23)cc1OC` [Papaverine]: 26.8 ± 2.7%.
In the case of `C[n+]1ccc(-c2cc[n+](C)cc2)cc1` [Paraquat], the “TEA uptake activity percent taking the level with addition of no compound as 100% (% ± S.D.)” value in assay [1] (compound 1 mM) is 57.2 ± 6.8%.
With `CC[C@@H]1C(=O)OC[C@@H]1Cc1cncn1C` [Pilocarpine], the “TEA uptake activity percent taking the level with addition of no compound as 100% (% ± S.D.)” value in assay [1] (compound 0.1 mM) turned out to be 96.1 ± 0.4%.
Still for that read-out and setting: then `CC(C)NCC(O)COc1cccc2ccccc12` (stereo not shown) [Propranolol], with 30.1 ± 3.9%.
Take `CCc1nc(N)nc(N)c1-c1ccc(Cl)cc1` [Pyrimethamine]: the “TEA uptake activity percent taking the level with addition of no compound as 100% (% ± S.D.)” value in assay [1] (compound 0.00001 mM) turned out to be 45.2 ± 3.5%; in assay [1] (compound 0.0001 mM) it was 19.8 ± 1.6%.
On to `CCN(CC)CCCC(C)Nc1c2ccc(Cl)cc2nc2ccc(OC)cc12` (stereo not shown) [Quinacrine], for which, in assay [1] (compound 0.01 mM), the “TEA uptake activity percent taking the level with addition of no compound as 100% (% ± S.D.)” value is on record as 41.6 ± 8.2%.
Same read-out and setting: next, `C=C[C@H]1C[N@@]2CC[C@H]1C[C@H]2[C@H](O)c1ccnc2ccc(OC)cc12` [Quinine]: 30.4 ± 2.8%.
Regarding `COC(=O)[C@H]1[C@H]2C[C@@H]3c4[nH]c5cc(OC)ccc5c4CCN3C[C@H]2C[C@@H](OC(=O)c2cc(OC)c(OC)c(OC)c2)[C@@H]1OC` [Reserpine], the entries for the “TEA uptake activity percent taking the level with addition of no compound as 100% (% ± S.D.)” value in assay [1] (compound 0.001 mM) and in assay [1] (compound 0.01 mM) were 86.3 ± 3.5% and 22.8 ± 0.9%, respectively.
For the molecule `C[C@@H]1O[C@@H](OC[C@H]2O[C@@H](Oc3c(-c4ccc(O)c(O)c4)oc4cc(O)cc(O)c4c3=O)[C@H](O)[C@@H](O)[C@@H]2O)[C@H](O)[C@H](O)[C@H]1O` [Rutin], the “TEA uptake activity percent taking the level with addition of no compound as 100% (% ± S.D.)” value in assay [1] (compound 0.1 mM) is given as 71.8 ± 3.6%.
With `CC(C)(C)c1cc(C=C(C#N)C#N)cc(C(C)(C)C)c1O` [SF6847], in assay [1] (setting [3]), the “Effect on TEA uptake activity (in words)” value was “greatly decreased”.
Take `NCCc1c[nH]c2ccc(O)cc12` [Serotonin]: the “TEA uptake activity percent taking the level with addition of no compound as 100% (% ± S.D.)” value in assay [1] (compound 0.1 mM) worked out at 67.5 ± 8.0%.
In the case of `NCCCCNCCCN` [Spermidine], the “TEA uptake activity percent taking the level with addition of no compound as 100% (% ± S.D.)” value in assay [1] (compound 0.05 mM) came to 97.0 ± 11.4%.
In the case of `Cc1ncc(C[n+]2csc(CCO)c2C)c(N)n1` [Thiamine], the results for the “TEA uptake activity percent taking the level with addition of no compound as 100% (% ± S.D.)” value in assay [1] (compound 0.1 mM) and in assay [1] (compound 1 mM) were 55.7 ± 7.0% and 31.1 ± 3.9%, respectively.
For the molecule `N[C@@H](Cc1cc(I)c(Oc2cc(I)c(O)c(I)c2)c(I)c1)C(=O)O` [Thyroxine], the “TEA uptake activity percent taking the level with addition of no compound as 100% (% ± S.D.)” value in assay [1] (compound 0.1 mM) was 113.0 ± 4.5%.
Take `Cl.N` [ammonium chloride]: the “TEA uptake activity inhibited by” value in assay [1] (HEK293 cells expressing human MATE1, FIG. 9(e), concentration not given) is 60%.
Regarding `C[C@]12CC[C@@H](O)C[C@@H]1CC[C@@H]1[C@@H]2CC[C@]2(C)C(=O)CC[C@@H]12` [androsterone], the “Inhibition of TEA uptake activity (in words, summary of Table 1)” value in assay [1] is listed as “inhibited”.
For the molecule `CO[C@@H]1C[C@@H](C[C@H]2CC[C@H](C)[C@H]([C@@H](C)C(=O)O)O2)O[C@]2(O[C@](C)([C@H]3CC[C@@](C)([C@@H]4O[C@@H]([C@H]5O[C@@](O)(CO)[C@H](C)C[C@@H]5C)C[C@@H]4C)O3)C[C@H]2C)[C@@H]1C` [nigericin], the “Effect on TEA uptake activity (in words)” value in assay [1] (setting [3]) is given as “greatly decreased”.
On the same count and under the same terms, next, `CC(C)[C@@H]1NC(=O)[C@H](C)OC(=O)[C@@H](C(C)C)NC(=O)[C@@H](C(C)C)OC(=O)[C@H](C(C)C)NC(=O)[C@H](C)OC(=O)[C@@H](C(C)C)NC(=O)[C@@H](C(C)C)OC(=O)[C@H](C(C)C)NC(=O)[C@H](C)OC(=O)[C@@H](C(C)C)NC(=O)[C@@H](C(C)C)OC1=O` [valinomycin]: “not affected”.
For the molecule Catechin, in assay [1] (compound 0.1 mM), the “TEA uptake activity percent taking the level with addition of no compound as 100% (% ± S.D.)” value came to 104.0 ± 4.4%.
Still for that read-out and setting: next, Tocopherol: 78.8 ± 9.6%.
Consider para-aminobutyric acid, for which the “Inhibition of TEA uptake activity (in words, summary of Table 1)” value in assay [1] is “not inhibited”.
